pIC50: −log10 of the molar value. Where two headings read alike, the source gives them in different places. Where a SMILES comes first, the peptide text is derived from it. The star is where a group is joined. Doxorubicin(3'-N) = COc1cccc2c1C(=O)c1c(O)c3c(c(O)c1C2=O)C[C@@](O)(C(=O)CO)C[C@@H]3O[C@H]1C[C@H](N*)[C@H](O)[C@H](C)O1
Tests used:
KPC960 cells = test: CCK-8 cytotoxicity; type: cell-based, human; conditions: 48 h treatment
Procedure: (§1) The cytotoxicity of F68-FDOX was assessed via a cell counting kit-8 (CCK-8) assays. First, 1 × 10^5 HT29, MDA-MB231, KPC960 or H9C2 cells were seeded into 96-well cell culture plates. […] Finally, cell viability was measured by a microplate reader (VERSAmaxTM; Molecular Devices Corp., USA) with 450 nm of wavelength.

H9C2 cells = test: CCK-8 cytotoxicity; type: cell-based, rat; conditions: 48 h treatment, normal cardiomyocytes
Procedure: as §1

[1] = Pharmacokinetics after intravenous injection; type: in vivo, mice
Procedure: (§2) The 6-week male BALB/c and BALB/c nu/nu mice were purchased from NaraBio (Gyeonggi-do, Republic of Korea). Mice were bred under pathogen-free conditions in the Korea Institute of Science and Technology (KIST). All experiments with animals were performed in compliance with the relevant laws and institutional guidelines of Institutional Animal Care and Use Committee (IACUC; approved number of 2020-123) in Korea Institute of Science and Technology (KIST). […] After treatment, blood samples were collected from mice by cardiac puncture after deep anesthesia at pre-determined times, followed by analysis with HPLC with fluorescence detector. The PK parameters including area under the curves (AUC), clearance (CL), volume of distribution (Vd) and half-life (t1/2) were calculated using a WinNonlin software. […] The fluorescence intensities in the tumor regions were quantified using a Living Image software (PerkinElmer, Waltham, MA, USA). The ex vivo NIRF imaging of collected major organs after 9 h of injection was also performed using IVIS Lumina Series III system. […] For this analysis, each tissue was cut into 8-μm sections using rotary microtome and analyzed via confocal laser scanning microscope (CLSM) equipped with 405 diode (405 nm) and HeNe-Red (633 nm) lasers.

HT29 tumor-bearing mice [2] = test: Pharmacodynamics, histological analysis of organs and tumor tissues (CLSM); type: in vivo; conditions: i.v. 4 mg/kg based on DOX, 9 h after injection
Procedure: as §2

HT29 tumor = test: Antitumor activity, colon tumor model; type: in vivo
Procedure: (§3) The antitumor activity was evaluated in colon, breast and pancreatic cancer models, which were prepared by subcutaneous injection with 1 × 10^7 HT29, MDA-MB231 or KPC960 cells, respectively. […] The mice were treated once every three days, and tumor volumes were calculated as the largest diameter × smallest diameter^2 × 0.53, every 2 days. The mice with a tumor size of 2000 mm^3 or higher were counted as dead. To analyze the antitumor activity in a single cell level, the tumor tissues were collected on day 9, and single cell were isolated from the tumor tissues using a Tumor Dissociation Kit. After cell counting, single cells were stained with Annexin V for 1 h in room temperature and analyzed via flow cytometer.

[3] = tested on: colon (HT29) tumor tissues; test: Annexin V staining of single tumor cells (flow cytometry); type: in vivo, mice; conditions: day 9 after treatment, mean
Procedure: as §3

BALB/c mice [4] = test: Toxicity study after multi-dosage; type: in vivo
Procedure: (§4) The safety of F68-FDOX treatment was assessed by histological and hematological analyses. Briefly, DOX (4 mg/kg), FRRG-DOX (4 mg/kg based on DOX contents) or F68-FDOX (4 mg/kg based on DOX contents) were intravenously injected into BALB/c mice. On day 9 after treatments, major organs were collected from mice, and structural abnormalities and apoptosis in organ tissues were assessed by staining with H&E or TUNEL, respectively. In case of hematological analyses, blood samples were collected from mice on day 9. For the complete blood count (CBC) analyses, each blood sample was mixed with EDTA, and a portion of blood sample was centrifuged at 2100 rpm for 20 min to obtain blood plasma. The following factors in blood samples were measured; albumin/globulin ratio (A/G), troponin-I, albumin (Alb), total protein (TP), alanine aminotransferase (ALT), total cholesterol (T-Chol), blood urea nitrogen (BUN), alkaline phosphatase (ALP), red blood cell (RBC), white blood cell (WBC), mean corpuscular hemoglobin (MCH), mean corpuscular volume (MCV), hematocrit (HCT), hemoglobin (HGB) and platelet (PLT). To assess the safety of F68-FDOX treatment after multiple-dosage, DOX (4 mg/kg), FRRG-DOX (4 mg/kg based on DOX contents) or F68-FDOX (4 mg/kg based on DOX contents) were injected into mice once every three days. Then, histological and hematological analyses were performed as described above.

mice = conditions: 5 mg/kg free DOX two times (Total 10 mg/kg); ref [42]; cited from earlier work
Procedure: […] […] Even though same dose of equal drugs was administered into the mice, the outcomes can be varied according to the not only the number and intervals of the administration, but also different reactivity by species, feeding environment and age of the ...

BALB/c mice [5] = test: Toxicity study after single-dosage
Procedure: as §4

[6] = type: in vitro ADME, mouse
Text: The carrier-free doxorubicin (DOX) prodrug nanoparticles were designed as an alternative formulation to overcome several problems of conventional nano-sized drug delivery system in the terms of technical- and industrial-aspects. […] This absolutely simplified one-step synthesis protocol allowed 100 g batch of preparation as described in “Methods” section. […] In addition, their precise and concise structure allow easy quality control (QC) after synthesis; thus, we could verify the successful preparation of FRRG-DOX by confirming chemical structure, exact mass and purity via ^1H NMR, MALDI-TOF (calculated mass: 1102.17 Da, measured mass: 1102.595 m/z) and HPLC (99%), respectively (Additional file 1: Fig. S2). Importantly, FRRG-DOX molecules self-assembled into prodrug nanoparticles by its intermolecular π-π stacking hydrophobic interactions without any additional carrier materials, resulting in high drug loading (> 50%). […] This was clearly supported by MALDI-TOF measurement, wherein the molecular weights of G-DOX (calculated mass: 600.58 Da, measured mass: 656.4 m/z [M + Li] and 657.4 m/z [M + Li + H]) were confirmed at the newly appeared peak (13 min) in the HPLC spectrum after incubation of F68-FDOX with cathepsin B (Additional file 1: Fig. S6). […]

[7] = type: physicochemical
Procedure: Finally, we developed F68-FDOX as a lyophilized powder form and evaluated the long-term storage stability of lyophilized F68-FDOX powder stored for 3, 6, 12 months in the low (− 4 °C), room (37 °C) or accelerated (60 °C) condition; for these studies, size distribution, chemical structure and purity were analyzed after reconstitution of lyophilized powder stored at each condition (Additional file 1: Fig. S7–S9). […] Taken together, the manufacturing operation for mass production of F68-FDOX was optimized for preclinical development, and their physicochemical characterization, such as size distribution, particle stability, target enzyme-specificity, and even the long-term storage stability was successfully evaluated in vitro.
To prepare carrier-free prodrug nanoparticles, the cancer-specific prodrug was simply synthesized by conjugating cathepsin B-specific cleavable tetrapeptide (Phe-Arg-Arg-Gly; FRRG) to DOX via one-step reaction. […] The FRRG-DOX was purified using Sep-Pak C18 column chromatography and the resulting filtrate was analyzed via RP-HPLC (Agilent 1200 Series HPLC System). […] The long-term storage stability of FRRG-DOX power was assessed after storage of 3, 6, 12 months in the low (− 4 °C), room (37 °C) or accelerated (60 °C) condition, followed by analysis of size, chemical structure and purity as described above. […]

HT29 tumor-bearing mice [8] = conditions: mouse, in vivo, iv, 4 mg/kg
Procedure: as §2

BALB/c mice [9] = conditions: mouse, in vivo, iv, 10 mg/kg
Procedure: as §4

[10] = mice, i.v., 4 mg/kg based on DOX contents, WinNonlin
[11] = treatment five times with 3 days-intervals
[12] = BALB/c mice, i.v. 10 mg/kg based on DOX, single dose

**Q.** With COc1cccc2c1C(=O)c1c(O)c3c(c(O)c1C2=O)C[C@@](O)(C(=O)CO)C[C@@H]3O[C@H]1C[C@H](N)[C@H](O)[C@H](C)O1 [DOX, doxorubicin] as the compound, how does the pIC50 (KPC960 cells) read?
**A.** The pIC50 was 5.14.

**Q.** And the pIC50 (H9C2 cells)?
**A.** The pIC50 was 4.86.

**Q.** What about the CL [1, 10] of the same compound?
**A.** Its CL is 3.02 ± 0.638 mL/min/kg.

**Q.** What about the Vd [1, 10] of the same compound?
**A.** The Vd was 0.304 ± 0.0976 L/kg.

**Q.** And the “half-life (t1/2)” value [1, 10]?
**A.** The value was 1.33 ± 0.23 h.

**Q.** What about the AUClast ([1]; mice, i.v., 4 mg/kg based on DOX contents, blood, HPLC with fluorescence detector, WinNonlin) of the same compound?
**A.** Its AUClast is 22.18 ± 4.52 µg·h/mL.

**Q.** And the “distribution in major organs and tumor tissues (histology)” value (HT29 tumor-bearing mice [2])?
**A.** Its value is “non-specifically distributed in all the major organs and low tumor accumulation”.

**Q.** And the “colon tumor volume on day 9 after treatment” value (HT29 tumor; HT29 s.c. tumor, i.v. 4 mg/kg based on DOX once every three days)?
**A.** Its value is 478.75 ± 49.87 mm^3.

**Q.** And the “time within which all mice were dead (tumor model)” value (HT29 tumor; HT29 tumor-bearing mice, i.v. 4 mg/kg once every three days)?
**A.** The value was at most 9 days.

**Q.** What about the “percentage of apoptotic (Annexin V-positive) tumor cells” value [3] of the same compound?
**A.** The value was 17.7 ± 1.51%.

**Q.** And the “histology of liver, spleen and heart tissues, multi-dosage” value (BALB/c mice [4]; day 7, H&E)?
**A.** The value was “severe tissue damages”.

**Q.** And the “hematological parameters, multi-dosage” value (BALB/c mice [4]; day 7, treatment with 3 days-intervals)?
**A.** Its value is “remarkably got out from the normal range”.

**Q.** What about the “body weight change, multi-dosage” value (BALB/c mice [4]; [11]) of the same compound?
**A.** Its value is “severe body weight loss”.

**Q.** What about the “time within which all mice were dead, multi-dosage” value (BALB/c mice [4]; [11]) of the same compound?
**A.** The value was at most 7 days.

**Q.** And the “time within which all mice were dead” value (mice)?
**A.** The value was “within two weeks”.

**Q.** And the “body weight change, single-dosage” value (BALB/c mice [5]; [12])?
**A.** Its value is “gradually reduced”.

**Q.** What about the “time within which all mice were dead, single-dosage” value (BALB/c mice [5]; [12]) of the same compound?
**A.** The value was at most 9 days.

**Q.** What about the “complete blood count (CBC) analyses, single-dosage” value (BALB/c mice [5]; day 9, i.v. 10 mg/kg) of the same compound?
**A.** The value was “severe leukopenia, oligocythemia and thrombocytopenia”.

**Q.** And the “serological examination (BUN, ALT, troponin-I), single-dosage” value (BALB/c mice [5]; day 9, i.v. 10 mg/kg)?
**A.** The value was “severe cardiac, renal and hepatic toxicity”.

**Q.** What about the “major organ tissues stained with H&E or TUNEL, single-dosage” value (BALB/c mice [5]; day 9, i.v. 10 mg/kg based on DOX) of the same compound?
**A.** The value was “elevated structural abnormalities with apoptosis”.

**Q.** With COc1cccc2c1C(=O)c1c(O)c3c(c(O)c1C2=O)C[C@@](O)(C(=O)CO)C[C@@H]3O[C@H]1C[C@H](NC(=O)CNC(=O)[C@H](CCCNC(=N)N)NC(=O)[C@H](CCCNC(=N)N)NC(=O)[C@H](Cc2ccccc2)NC(C)=O)[C@H](O)[C@H](C)O1 [FRRG-DOX] (Ac-FRRG-{Doxorubicin(3'-N)}) as the compound, how does the AUCinf ([1]; mouse, in vivo, iv, 4 mg/kg) read?
**A.** Its AUCinf is 407.71 ± 85.81 µg·h/mL.

**Q.** And the AUClast ([1]; mouse, in vivo, iv, 4 mg/kg)?
**A.** The AUClast was 345.99 ± 68.9 µg·h/mL.

**Q.** And the CL ([1]; mouse, in vivo, iv, 4 mg/kg)?
**A.** Its CL is 0.1692 ± 0.0405 mL/min/kg.

**Q.** And the Vd ([1]; mouse, in vivo, iv, 4 mg/kg)?
**A.** The Vd was 0.0832 ± 0.03185 L/kg.

**Q.** What about the “half-life (t1/2)” value ([1]; mouse, in vivo, iv, 4 mg/kg) of the same compound?
**A.** Its value is 7.96 ± 4.59 h.

**Q.** And the “body weight change, single-dosage” value (BALB/c mice [5]; [12])?
**A.** Its value is “no significant body weight loss”.

**Q.** Which results are given for Phe-Arg-Arg-Gly [F68-FDOX]?
**A.** time of high stability without significant changes of size and polydispersity index in mouse serum [6]: ≥ 6 days; stability 24 h after reconstitution (size distribution, chemical structure, purity) [7]: no significant changes; AUCinf ([1]; mouse, in vivo, iv, 4 mg/kg): 1367.44 ± 14.35 µg·h/mL; AUClast ([1]; mouse, in vivo, iv, 4 mg/kg): 1281.17 ± 240 µg·h/mL; CL ([1]; mouse, in vivo, iv, 4 mg/kg): 0.0488 ± 0.0005 mL/min/kg; Vd ([1]; mouse, in vivo, iv, 4 mg/kg): 0.1 ± 0.00269 L/kg; time for which a detectable amount remained in the body ([1]; mouse, in vivo, iv, 4 mg/kg): 96 h; fluorescence intensity in tumor tissues relative to FRRG-DOX (NIRF) (HT29 tumor-bearing mice [8]): 2.42–2.71 fold; histology of liver, spleen and heart tissues, multi-dosage (BALB/c mice [4]; mouse, in vivo): without damage to the normal organs; all hematological parameters, single-dosage (BALB/c mice [9]): in normal range; body weight change, single-dosage (BALB/c mice [9]): no significant body weight loss; major organ tissues stained with H&E or TUNEL, single-dosage (BALB/c mice [9]): did not induce noticeable tissue damages
